From patent US12678412B2, “Substituted tolans for the modulation of microbial colonization” (BioMendics, LLC, priority 2017, dated 2026)

Key:
Format in all cases: cell-based
[1] = test system: Methicillin Resistant Staphylococcus aureus (MRSA, USA 400); assay: Colony forming assay, 24 h plate assay, MRSA USA 400
Description: Proliferating cultures of Methicillin Resistant Staphylococcus aureus (MRSA, USA 400) were used in a colony forming assay. Frozen stock cultures of MRSA USA 400 were thawed and grown overnight in tryptic soy broth (TSB) with shaking at 37° C. The overnight culture (0.5-1.0 mL) was added to 100 mL TSB and grown at 37° C. with shaking and monitored for an optical density of 0.55-0.60 in order to obtain a final inoculum suspension of approximately 10^8 CFU/mL.
BM3103 was suspended into a 70% v/v alcohol gel formulation to acquire the desired % w/v tested within the example. Each concentration was vortexed thoroughly until dissolved. Initial tested concentrations of BM3103 were 1, 0.5, and 0.1% w/v. These concentrations and the alcohol gel vehicle were mixed with equal parts of the 10^8 CFU/mL inoculum to obtain a final concentration of 0.5, 0.25, and 0.05% (22 mM, 11 mM, and 2 mM) BM3103. Tobramycin (600 μg/mL) served as the positive control. Vehicle and BM3103 formulations contained matching final concentration of 35% v/v alcohol.
BM3103 was dissolved into Transcutol (diethylene glycol monoethyl ether) at 2.5% w/v and vortexed until dissolved. This concentration was then serial diluted to achieve the remaining concentrations tested. Before plating, 100 μL of the final inoculum (10^8 CFU/mL) was mixed with 20 μL TSB broth and 80 μL of BM3103 doses or vehicle. Tobramycin, 600 μg/mL, served as the positive control. The final plating concentrations for BM3103 were 1, 0.5, 0.25, and 0.1% w/v (44 mM, 22 mM, 11 mM, 4 mM) BM3103. Vehicle and BM3103 formulations contained matching final concentration of 40% v/v Transcutol.
The above listed formulations combined with the MRSA inoculum were plated onto TSB agar plates. The plates were grown at 37° C. for 24 h, imaged, and the bacteria colonies were counted. The experiment was done in triplicate at each concentration level described above. Colony counts for each treatment were tabulated and the Log of the colony forming units/mL (Log CFU/mL) were determined. The mean and the standard error of the mean were calculated for each treatment.

wild type E. Coli = assay: Control of microbial growth, wild type E. coli
S. typhimurium TA100 = assay: Dose range finding colony forming assay, strain TA100 with metabolic activation
Description: A series of dose range finding assays were performed with five bacterial strains, S. typhimurium TA97a, TA98, TA100, TA1535, and E. coli WP2 uvrA pKM101, with and without metabolic activation at three plates per dose. The following doses, along with positive and negative controls, were tested: 5000, 2500, 1250, 500, 250, 125, 50, 20, 10, 5, 2, 1, and 0.2 μg/plate. The plates were evaluated for toxicity (a decrease in plate counts with increasing dose and/or a visible thinning of the background lawn) and for precipitation of the test article. Metabolic activation was included in some samples by adding phenobarbital/benzoflavone-induced rat liver S9 fractions with cofactors (S9 mix). Prior to use, freshly thawed aliquots of rat liver S9 were mixed with a sterile cofactor mix. The S9 mix contains a 10% liver S9 concentration and was refrigerated or stored on ice until used. When testing with metabolic activation, the S9 mix was used in the assay tube in place of phosphate buffer.
Dosing formulations were prepared to deliver all doses in a constant volume of 0.1 mL. The highest dose was prepared from test article weighed to the nearest 0.1 mg and the remaining formulations were prepared as serial dilutions from the high dose stock formulation. Using a permanent marking pen or computer printed labels, assay plates were labeled with the project and study numbers and the date. Assay plates and tubes were labeled with a unique identifier, which was used to match the assay tubes with the properly identified minimal glucose agar plate.
The pre-incubation method was used to perform the assay. The assay mix consisted of 0.1 mL of the test article formulation or control article, 0.5 mL S9 mix or phosphate buffer, and 0.1 mL of bacterial culture. Assay tubes were incubated at 37±1° C. with gentle agitation for 20±1 minutes, then 2.0-2.5 mL top agar was added to the assay mix and the top agar/assay mix poured onto appropriately labeled minimal glucose agar plates. Once the top agar hardened, the plates were inverted and incubated at 37±1° C. for 48±2 hours. Plates were counted with the Sorcerer (v. 2.2)/Ames Study Manager (v. 1.2.4) system from Perceptive Instruments (Suffolk, UK). With this system, plate counts are automatically transferred from the plate imager (Sorcerer) to a Study Manager spreadsheet, and the data are stored in a secure manner on an Oracle database. Some plates were hand counted, e.g., if sample precipitate interferes with automatic counting or toxicity results in the formation of microcolonies, in which case, counts for these plates were entered into the spreadsheet manually. Plates were scored also with the extent of colonization by a post fix code.

COc1ccc(C#Cc2ccc(O)cc2)cc1 [BM3103, 4-hydroxy-4′-methoxytolan]
Reduction of MRSA USA 400 counts ([1]; 0.05% w/v, 2 mM, alcohol gel formulation, compared to the vehicle control, FIG. 9): 4 fold
Reduction of MRSA USA 400 counts ([1]; 0.1% BM3103, Transcutol formulation, FIG. 10): > 5 fold
Bacterial count of MRSA USA 400 ([1]; 0.25% BM3103, alcohol gel formulation, FIG. 9): no bacterial count
Bacterial count of MRSA USA 400 ([1]; 0.5% BM3103, alcohol gel formulation, FIG. 9): no bacterial count
Bacterial count of MRSA USA 400 ([1]; remaining concentrations tested (1, 0.5, 0.25% w/v), Transcutol formulation, FIG. 10): no bacterial count
Effectiveness against wild type E. Coli (wild type E. Coli): effective
Colony forming units/plate (S. typhimurium TA100; 0.2 μg/plate): 78 colony forming units/plate
Individual colony counts (S. typhimurium TA100; 0.2 μg/plate): 78
Colony forming units/plate (S. typhimurium TA100; 1 μg/plate): 56.0 colony forming units/plate
Individual colony counts (S. typhimurium TA100; 1 μg/plate): 56
Colony forming units/plate (S. typhimurium TA100; 2 μg/plate): 36.0 colony forming units/plate
Individual colony counts (S. typhimurium TA100; 2 μg/plate): 360
Colony forming units/plate (S. typhimurium TA100; 5 μg/plate): 74.0 colony forming units/plate
Individual colony counts (S. typhimurium TA100; 5 μg/plate): 74
Colony forming units/plate (S. typhimurium TA100; 10 μg/plate): 38.0 colony forming units/plate
Individual colony counts (S. typhimurium TA100; 10 μg/plate): 38
Plate postfix code (individual colony counts) (S. typhimurium TA100; 10 μg/plate): S T
Colony forming units/plate (S. typhimurium TA100; 20 μg/plate): 54.0 colony forming units/plate
Individual colony counts (S. typhimurium TA100; 20 μg/plate): 54
Colony forming units/plate (S. typhimurium TA100; 50 μg/plate): 0.0 colony forming units/plate
Individual colony counts (S. typhimurium TA100; 50 μg/plate): 0
Colony forming units/plate (S. typhimurium TA100; 125 μg/plate): 0.0 colony forming units/plate
Individual colony counts (S. typhimurium TA100; 125 μg/plate): 0
Colony forming units/plate (S. typhimurium TA100; 250 μg/plate): 0.0 colony forming units/plate
Individual colony counts (S. typhimurium TA100; 250 μg/plate): 0
Colony forming units/plate (S. typhimurium TA100; 500 μg/plate): 0.0 colony forming units/plate
Individual colony counts (S. typhimurium TA100; 500 μg/plate): 0
Colony forming units/plate (S. typhimurium TA100; 1250 μg/plate): 0.0 colony forming units/plate
Individual colony counts (S. typhimurium TA100; 1250 μg/plate): 0
Plate postfix code (individual colony counts) (S. typhimurium TA100; 1250 μg/plate): A P
Colony forming units/plate (S. typhimurium TA100; 2500 μg/plate): 0.0 colony forming units/plate
Individual colony counts (S. typhimurium TA100; 2500 μg/plate): 0
Plate postfix code (individual colony counts) (S. typhimurium TA100; 2500 μg/plate): A P
Colony forming units/plate (S. typhimurium TA100; 5000 μg/plate): 0.0 colony forming units/plate
Individual colony counts (S. typhimurium TA100; 5000 μg/plate): 0
Plate postfix code (individual colony counts) (S. typhimurium TA100; 5000 μg/plate): A P
